Test results taken from patent publication US8618107B2 (Gilead Connecticut, Inc., priority 2010, dated 2013).

Experiments:
Btk = Btk (Homo sapiens (Human), UniProt Q06187); experiment: standard biochemical Btk Kinase Assay (Example 901)
Text: Determination of IC50 values can be accomplished using conventional techniques known in the art. In general, an IC50 can be determined by measuring the activity of a given enzyme in the presence of a range of concentrations of the inhibitor under study. The experimentally obtained values of enzyme activity then are plotted against the inhibitor concentrations used. […] Analogously, other inhibitory concentrations can be defined through appropriate determinations of activity.

[1] = tested on: CD86 surface expression on CD19+/7AAD- mouse splenocytes stimulated with IgM; experiment: CD86 Inhibition Assay; format: cell-based; conditions: Splenocyte; total mouse splenocytes (Balb/c), IgM stimulation 24 hr
Experimental: Following the 24 hr incubation, cells are transferred to conical bottom clear 96-well plates and pelleted by centrifugation at 1200×g×5 min. […] Cells are sorted on a BD FACSCalibur and gated on the CD19^+/7AAD^− population. The levels of CD86 surface expression on the gated population is measured versus test compound concentration.

[2] = tested on: CD69 on CD20 positive cells in human whole blood stimulated by anti-IgM; experiment: CD69 Whole Blood Assay; format: cell-based; conditions: anti-human IgM stimulation, 20 hours
Experimental: Human blood is obtained from healthy volunteers, with the following restrictions: 1 week drug-free, non-smokers. Blood (approximately 20 mls to test 8 compounds) is collected by venipuncture into Vacutainer® (Becton, Dickinson and Co.) tubes with sodium heparin.
Solutions of Formula I compounds at 10 mM in DMSO are diluted 1:10 in 100% DMSO, then are diluted by three-fold serial dilutions in 100% DMSO for a ten point dose-response curve. The compounds are further diluted 1:10 in PBS and then an aliquot of 5.5 μl of each compound is added in duplicate to a 2 ml 96-well plate; 5.5 μl of 10% DMSO in PBS is added as control and no-stimulus wells. Human whole blood—HWB (100 μl) is added to each well. After mixing the plates are incubated at 37° C., 5% CO2, 100% humidity for 30 minutes. Goat F(ab′)2 anti-human IgM (10 μl of a 500 μg/ml solution, 50 μg/ml final) is added to each well (except the no-stimulus wells) with mixing and the plates are incubated for an additional 20 hours. At the end of the 20 hour incubation, samples are incubated with fluorescent labeled antibodies for 30 minutes, at 37° C., 5% CO2, 100% humidity. Include induced control, unstained and single stains for compensation adjustments and initial voltage settings. Samples are then lysed with PharM Lyse™ (BD Biosciences Pharmingen) according to the manufacturer's instructions. Samples are then transferred to a 96 well plate suitable to be run on the BD Biosciences HTS 96 well system on the LSRII machine. Data acquired and Mean Fluorescence Intensity values were obtained using BD Biosciences DIVA Software. Results are initially analyzed by FACS analysis software (Flow Jo). […] The IC50 values are calculated by Prism version 5, using a nonlinear regression curve fit.

Chain of Btk (Q06187 whole entry): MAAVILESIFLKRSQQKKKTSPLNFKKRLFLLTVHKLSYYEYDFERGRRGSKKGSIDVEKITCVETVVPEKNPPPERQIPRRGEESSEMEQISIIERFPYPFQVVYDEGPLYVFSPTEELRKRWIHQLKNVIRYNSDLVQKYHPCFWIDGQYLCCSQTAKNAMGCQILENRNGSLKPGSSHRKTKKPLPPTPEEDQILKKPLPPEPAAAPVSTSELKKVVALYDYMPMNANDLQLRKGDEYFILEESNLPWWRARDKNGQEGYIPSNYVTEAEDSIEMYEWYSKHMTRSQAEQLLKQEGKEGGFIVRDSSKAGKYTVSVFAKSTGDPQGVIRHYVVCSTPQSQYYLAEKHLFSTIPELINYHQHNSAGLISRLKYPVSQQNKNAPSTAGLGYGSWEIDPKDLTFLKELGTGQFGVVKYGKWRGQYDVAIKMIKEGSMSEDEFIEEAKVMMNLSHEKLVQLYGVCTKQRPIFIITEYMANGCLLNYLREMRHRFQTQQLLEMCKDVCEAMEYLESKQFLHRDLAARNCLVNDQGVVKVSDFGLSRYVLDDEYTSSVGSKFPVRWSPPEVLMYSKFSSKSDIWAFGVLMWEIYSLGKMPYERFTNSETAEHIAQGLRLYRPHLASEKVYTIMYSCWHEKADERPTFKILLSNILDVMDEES

| melting point [°C] | EC50 [1] [nM] | Compound | other results |
| --- | --- | --- | --- |
| 180 to 181 | – | CN1CCN(c2ccc(Nc3cc(-c4cccc(N5CCc6c(cc7n6CCCC7)C5=O)c4CO)cn(C)c3=O)nc2)CC1 [Example 275, 2-(2-(Hydroxymethyl)-3-(1-methyl-5-(5-(4-methylpiperazin-1-yl)pyridin-2-ylamino)-6-oxo-1,6-dihydropyridin-3-yl)phenyl)-3,4,6,7,8,9-hexahydropyrido[3,4-b]indolizin-1(2H)-one] | IC50 (Btk; Table 2): 16.3 nM |
| 175 to 177 | – | Cn1cc(-c2cc(F)cc(N3CCc4c(sc5c4CC(C)(C)C5)C3=O)c2CO)cc(Nc2ccc(N3CCN(C4COC4)CC3)cn2)c1=O [Example 237] | – |
| – | 6 | CCN1CCc2nc(Nc3cc(-c4cc(F)cc(N5CCn6c(cc7c6CC(C)(C)C7)C5=O)c4CO)cn(C)c3=O)ccc2C1 [Example 284, 10-(3-{5-[(6-Ethyl-5,6,7,8-tetrahydro-1,6-naphthyridin-2-yl)amino]-1-methyl-6-oxo-1,6-dihydropyridin-3-yl}-5-fluoro-2-(hydroxymethyl)phenyl)-4,4-dimethyl-1,10-diazatricyclo[6.4.0.0^2,6]dodeca-2(6),7-dien-9-one] | IC50 (Btk; Table 2): 2.8 nM |
| 167 to 168 | – | Cn1cc(-c2cccc(N3CCc4c(sc5c4CC(C)(C)C5)C3=O)c2CO)cc(Nc2cc3n(n2)CCOC3)c1=O [Example 183] | – |
| – | 3 | Cn1cc(-c2cc(F)cc(N3CCn4c(cc5c4CC(C)(C)C5)C3=O)c2CO)cc(Nc2ccc(N3CCN(CCF)CC3)cn2)c1=O [Example 273, 10-{5-Fluoro-3-[5-({5-[4-(2-fluoroethyl)piperazin-1-yl]pyridine-2-yl}amino)-1-methyl-6-oxo-1,6-dihydropyridin-3-yl]-2-(hydroxymethyl)phenyl}-4,4-dimethyl-1,10-diazatricyclo[6.4.0.0^2,6]dodeca-2(6),7-dien-9-one] | IC50 (Btk; Table 2): 6.35 nM |
| – | – | CN1CCN(c2ccc(Nc3cc(-c4cc(F)cc(N5CCn6c(cc7c6CCCC7)C5=O)c4CO)cn(C)c3=O)nc2)C(=O)C1 [Example 345, 2-(5-fluoro-2-(hydroxymethyl)-3-(1-methyl-5-(5-(4-methyl-2-oxopiperazin-1-yl)pyridin-2-ylamino)-6-oxo-1,6-dihydropyridin-3-yl)phenyl)-3,4,6,7,8,9-hexahydropyrazino[1,2-a]indol-1(2H)-one] | IC50 [2]: 24 nM |
| 227 to 229 | – | Cn1cc(-c2cccc(N3CCc4c(cc5n4CCCC5)C3=O)c2CO)cc(Nc2ccc(C3CNC3)cn2)c1=O [Example 227, 2-(3-(5-(5-(Azetidin-3-yl)pyridin-2-ylamino)-1-methyl-6-oxo-1,6-dihydropyridin-3-yl)-2-(hydroxymethyl)phenyl)-3,4,6,7,8,9-hexahydropyrido[3,4-b]indolizin-1(2H)-one] | – |
| 143 to 145 | – | CN1CCN(c2ccc(Nc3cc(-c4cc(F)cc(N5CCc6c(sc7c6CC(C)(C)C7)C5=O)c4CO)cn(C)c3=O)nc2)CC1 [Example 204] | – |
| – | 22 | Cn1cc(-c2cccc(N3CCn4c(cc5c4CCCC5)C3=O)c2CO)cc(Nc2cc3n(n2)CCOC3)c1=O [Example 110, 2-(3-(5-(6,7-dihydro-4H-pyrazolo[5,1-c][1,4]oxazin-2-ylamino)-1-methyl-6-oxo-1,6-dihydropyridin-3-yl)-2-(hydroxymethyl)phenyl)-3,4,6,7,8,9-hexahydropyrazino[1,2-a]indol-1(2H)-one] | IC50 (Btk; Table 1): 7.7 nM |
| 164 to 166 | – | CN1CCCC1c1ccc(Nc2cc(-c3cc(F)cc(N4CCc5c(sc6c5CCCC6)C4=O)c3CO)cn(C)c2=O)nc1 (stereo not shown) | – |
| 170 to 171 | – | Cn1cc(-c2cccc(-n3ccc4c5c(sc4c3=O)CC(C)(C)C5)c2CO)cc(Nc2ccncn2)c1=O [Example 203, 5-(3-(6,6-Dimethyl-5,7-dihydro-5H-cyclopenta[4,5]thieno[2,3-c]pyridine-1(2H)-yl)-2-(hydroxymethyl)phenyl)-1-methyl-3-(pyrimidin-4-ylamino)pyridin-2(1H)-one] | – |
| 191 to 192 | – | CC(C)N1CCN(c2ccc(Nc3cc(-c4cc(F)cc(N5CCc6c(sc7c6CC(C)(C)C7)C5=O)c4CO)cn(C)c3=O)nc2)CC1 [Example 239] | – |
| – | – | CN(Cc1cc(Nc2cc(-c3cc(F)cc(N4CCc5c(sc6c5CCCC6)C4=O)c3CO)cn(C)c2=O)nn1C)C1COC1 [Example 324, 5-[5-Fluoro-2-(hydroxymethyl)-3-{1-methyl-5-[(1-methyl-5-{[methyl(oxetan-3-yl)amino]methyl}-1H-pyrazol-3-yl)amino]-6-oxo-1,6-dihydropyridin-3-yl}phenyl]-8-thia-5-azatricyclo[7.4.0.0^2,7]trideca-1(9),2(7)-dien-6-one] | IC50 [2]: 53 nM |
| – | – | COCc1c(-c2cc(Nc3ccc(N4CCN(C)CC4)cn3)c(=O)n(C)c2)cc(F)cc1N1CCn2c(cc3c2CCCC3)C1=O [Example 343, 2-{5-fluoro-2-(methoxymethyl)-3-(1-methyl-5-(5-(4-methylpiperazin-1-yl)pyridin-2-ylamino)-6-oxo-1,6-dihydropyridin-3-yl)phenyl)-3,4,6,7,8,9-hexahydropyrazino[1,2-a]indol-1(2H)-one] | IC50 [2]: 53 nM |
| 199 to 200 | – | Cc1cc(Nc2cc(-c3cccc(N4CCc5c(cc6n5CCCC6)C4=O)c3CO)cn(C)c2=O)n[nH]1 [Example 225, 2-(2-(Hydroxymethyl)-3-(1-methyl-5-(5-methyl-1H-pyrazol-3-ylamino)-6-oxo-1,6-dihydropyridin-3-yl)phenyl)-3,4,6,7,8,9-hexahydropyrido[3,4-b]indolizin-1(2H)-one] | – |
| – | 11 | CCN1CCn2nc(Nc3cc(-c4cc(F)cc(N5CCn6c(cc7c6CC(C)(C)C7)C5=O)c4CO)cn(C)c3=O)cc2C1 [Example 285, 10-{3-[5-({5-Ethyl-4H,5H,6H,7H-pyrazolo[1,5-a]pyrazin-2-yl}amino)-1-methyl-6-oxo-1,6-dihydropyridin-3-yl]-5-fluoro-2-(hydroxymethyl)phenyl}-4,4-dimethyl-1,10-diazatricyclo[6.4.0.0^2,6]dodeca-2(6),7-dien-9-one] | IC50 (Btk; Table 2): 3.6 nM |
| 135 to 136 | – | Cn1cc(-c2cccc(N3CCc4c(sc5c4CC(C)(C)C5)C3=O)c2CO)nc(Nc2cccnc2)c1=O [Example 193, 5-(2-(Hydroxymethyl)-3-(6,6-dimethyl-3,4,6,7-tetrahydro-5H-cyclopenta[4,5]thieno[2,3-c]pyridine-1(2H)-yl))-1-methyl-3-(pyridin-3-ylamino)pyrazin-2(1H)-one] | – |
| – | 44 | CN(Cc1cc(Nc2cc(-c3cc(F)cc(N4CCn5c(cc6c5CC(C)(C)C6)C4=O)c3CO)cn(C)c2=O)nn1C)C1COC1 [Example 321, 10-[5-Fluoro-2-(Hydroxymethyl)-3-{1-methyl-5-[(1-methyl-5-{[methyl(oxetan-3-yl)amino]methyl}-1H-pyrazol-3-yl)amino]-6-oxo-1,6-dihydropyridin-3-yl}phenyl]-4,4-dimethyl-1,10-diazatricyclo[6.4.0.0^2,6]dodeca-2(6),7-dien-9-one] | – |
| – | 21 | CN1CCN(c2ccc(Nc3cc(-c4cccc(N5CCn6c(cc7c6CCCC7)C5=O)c4CO)cn(C)c3=O)nc2)CC1 [Example 113, 2-(2-(hydroxymethyl)-3-(1-methyl-5-(5-(4-methylpiperazin-1-yl)pyridine-2-ylamino)-6-oxo-1,6-dihydropyridin-3-yl)phenyl)-3,4,6,7,8,9-hexahydropyrazino[1,2-a]indol-1(2H)-one] | IC50 (Btk; Table 1): 5 nM |
| – | 18 | Cn1cc(-c2cc(F)cc(N3CCc4c(sc5c4CC(C)(C)C5)C3=O)c2CO)cc(Nc2cc3n(n2)CCN(C2COC2)C3)c1=O [Example 318, 10-[5-Fluoro-2-(hydroxymethyl)-3-(1-methyl-5-{[5-(oxetan-3-yl)-4H,5H,6H,7H-pyrazolo[1,5-a]pyrazin-2-yl]amino}-6-oxo-1,6-dihydropyridin-3-yl)phenyl]-4,4-dimethyl-7-thia-10-azatricyclo[6.4.0.0^2,6]dodeca-1(8),2(6)-dien-9-one] | – |

| Compound | melting point [°C] | EC50 [1] [nM] | other results |
| --- | --- | --- | --- |
| CN(C)CCN(C)c1ccc(Nc2cc(-c3cc(F)cc(N4CCc5c(sc6c5CCCC6)C4=O)c3CO)cn(C)c2=O)nc1 [Example 286, 2-(3-(5-(5-((2-(Dimethylamino)ethyl)(methyl)amino)pyridin-2-ylamino)-1-methyl-6-oxo-1,6-dihydropyridin-3-yl)-5-fluoro-2-(hydroxymethyl)phenyl)-3,4,5,6,7,8-hexahydrobenzothieno[2,3-c]pyridin-1(2H)-one] | 122 to 123 | 4 | – |
| CC(C)N(C)Cc1ccc(Nc2cc(-c3cc(F)cc(N4CCc5c(sc6c5CCCC6)C4=O)c3CO)cn(C)c2=O)nc1 [Example 277, 5-[5-Fluoro-2-(hydroxymethyl)-3-{1-methyl-5-[(5-{[methyl(propan-2-yl)amino]methyl}pyridine-2-yl)amino]-6-oxo-1,6-dihydropyridin-3-yl}phenyl]-8-thia-5-azatricyclo[7.4.0.0^2,7]trideca-1(9),2(7)-dien-6-one] | – | 28 | – |
| CN1CCN(c2ccc(Nc3cc(-c4cc(F)cc(N5CCc6c(sc7c6CCCC7)C5=O)c4CO)cn(C)c3=O)nc2)CC1 [Example 212, 5-[5-Fluoro-2-(hydroxymethyl)-3-(1-methyl-5-{[5-(4-methylpiperazin-1-yl)pyridine-2-yl]amino}-6-oxo-1,6-dihydropyridin-3-yl)phenyl]-8-thia-5-azatricyclo[7.4.0.0^2,7]trideca-1(9),2(7)-dien-6-one] | – | 9 | – |
| Cn1cc(-c2cc(F)cc(N3CCc4c(sc5c4CC(C)(C)C5)C3=O)c2CO)cc(Nc2ccc(C3CCN(C4COC4)CC3)cn2)c1=O [Example 299, 10-[5-Fluoro-2-(hydroxymethyl)-3-[1-methyl-5-({5-[1-(oxetan-3-yl)piperidin-4-yl]pyridine-2-yl}amino)-6-oxo-1,6-dihydropyridin-3-yl]phenyl]-4,4-dimethyl-7-thia-10-azatricyclo[6.4.0.0^2,6]dodeca-1(8),2(6)-dien-9-one] | – | 9 | – |
